Measured values: ChEMBL document CHEMBL1817590, “Hippocampal and cortical neuronal growth mediated by the small molecule natural product clovanemagnolol” (2011)

Columns and labels:
Cortical neurone [1] = experiment: Neurotrophic activity in isolated embryonic mouse embryonic Cortical neurons assessed as induction of neurite outgrowth at 0.1 uM after 48 hrs relative to control; type: functional
Hippocampal neuron = experiment: Neurotrophic activity in isolated embryonic mouse brain Hippocampal neurons assessed as induction of neurite outgrowth after 48 hrs relative to control; type: functional
Cortical neurone [2] = experiment: Neurotrophic activity in isolated embryonic mouse embryonic Cortical neurons assessed as induction of neurite outgrowth at 0.01 uM after 48 hrs relative to control; type: functional
[3] = Neurotrophic activity in isolated embryonic mouse brain Hippocampal neurons assessed as induction of neurite outgrowth at 1 uM after 48 hrs relative to control; type: functional, Hippocampal neuron
Cortical neurone [4] = experiment: Neurotrophic activity in isolated embryonic mouse embryonic Cortical neurons assessed as induction of neurite outgrowth at 1 uM after 48 hrs relative to control; type: functional
[5] = Neurotrophic activity in isolated embryonic mouse brain Hippocampal neurons assessed as induction of neurite outgrowth at 0.1 uM after 48 hrs relative to control; type: functional, Hippocampal neuron
Cortical neurone [6] = experiment: Neurotrophic activity in isolated embryonic mouse embryonic Cortical neurons assessed as induction of neurite outgrowth after 48 hrs relative to control; type: functional
[7] = Neurotrophic activity in isolated embryonic mouse brain Hippocampal neurons assessed as induction of neurite outgrowth at 0.01 uM after 48 hrs relative to control; type: functional, Hippocampal neuron
[8] = molecular target: T1, Choline O-acetyltransferase (Rattus norvegicus) (UniProt P32738); experiment: Increase in choline acetyltransferase activity in rat brain neurons at […] after 10 days relative to control; type: tissue-based
T1 sequence (whole entry): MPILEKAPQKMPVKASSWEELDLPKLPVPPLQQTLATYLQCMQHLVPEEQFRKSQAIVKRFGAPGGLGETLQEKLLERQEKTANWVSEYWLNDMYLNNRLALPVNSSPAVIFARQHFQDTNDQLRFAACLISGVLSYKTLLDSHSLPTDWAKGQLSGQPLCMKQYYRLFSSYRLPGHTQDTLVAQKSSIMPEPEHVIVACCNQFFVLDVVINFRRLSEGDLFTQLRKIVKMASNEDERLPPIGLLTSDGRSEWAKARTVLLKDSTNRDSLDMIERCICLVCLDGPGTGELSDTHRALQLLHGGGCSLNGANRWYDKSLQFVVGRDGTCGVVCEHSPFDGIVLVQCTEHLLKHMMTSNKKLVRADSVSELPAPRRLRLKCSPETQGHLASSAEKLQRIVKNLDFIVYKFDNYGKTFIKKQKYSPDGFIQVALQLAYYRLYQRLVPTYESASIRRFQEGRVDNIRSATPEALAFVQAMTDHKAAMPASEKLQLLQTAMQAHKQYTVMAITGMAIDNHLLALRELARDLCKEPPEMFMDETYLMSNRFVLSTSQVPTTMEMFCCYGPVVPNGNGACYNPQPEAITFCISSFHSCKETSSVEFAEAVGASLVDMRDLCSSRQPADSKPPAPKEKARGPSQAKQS

In the case of `C=CCc1ccc(O)c(-c2cc(CC=C)ccc2O[C@H]2CC(C)(C)[C@@H]3CC[C@]4(C)C[C@]23CC[C@H]4O)c1` [CLOVANEMAGNOLOL], the Activity (Cortical neurone [1]) is reported as 22.7%, the Activity (Hippocampal neuron) is reported as “Dose-dependent effect” and the Activity (Cortical neurone [2]) is reported as 44.2%. The Activity [3] was -83.9%, the Activity (Cortical neurone [4]) was -80.7% and the Activity [5] was 26.5%. The Activity (Cortical neurone [6]) was “Dose-dependent effect”, the Activity [7] was 62.8% and the Activity [8] was 142%.

In the case of `C=CCc1ccc(O)c(-c2cc(CC=C)ccc2O)c1` [MAGNOLOL], the Activity (Cortical neurone [1]) is reported as 55.6%, the Activity (Hippocampal neuron) is reported as “Dose-dependent effect” and the Activity (Cortical neurone [2]) is reported as 20.2%. It also gave an Activity [3] of -69%, an Activity (Cortical neurone [4]) of -74.6% and an Activity [5] of 23.9%. The Activity (Cortical neurone [6]) was “Dose-dependent effect” and the Activity [7] was 50.1%.
